From PMC10279527, “Structural basis of metabolite transport by the chloroplast outer envelope channel OEP21” (Nature Structural & Molecular Biology, 2023)
Where “and” joins values, the source holds several entries; their conditions need not be identical. Equal values may be shown once. Read-outs that look alike come from different tables or passages of the source.

Columns and labels:
[1] = target: T1, OEP21 (Pisum sativum, UniProt Q9SM57); experiment: Amide hydrogen exchange NMR (CLEANEX) of OEP21 L5; set-up: made in house; species or system garden pea; details: 2 mM ATP or 5 mM GAP; 303 K, pH 6.0
[2] = target: T1, OEP21; experiment: CD-detected thermal melting of OEP21 in presence of metabolites; type: binding, garden pea; set-up: made in house; details: for raw CD / rel CD: 500 uM; for Melting point: ED Fig. 4a
[3] = target: T2, OEP21 wt (Pisum sativum, UniProt Q9SM57); experiment: Fluorescence polarization (FP) binding of MANT-ATP (or MANT-GMPPNP) to OEP21-WT, also at varied NaCl and MgCl2; set-up: species or system garden pea
T2 construct: made in house
Experimental: FP assays were performed on a spectrofluorometer FP-8300 (Jasco) equipped with a water bath cooling system MCM-100 (Jasco). […] A buffer containing no EDTA was used when MgCl2 was present. […] KD values were derived by fitting the data to a one-site binding model. […] All FP experiments were performed as triplicates.

## O=C[C@H](O)COP(=O)(O)O [GAP, D-glyceraldehyde-3-phosphate]
[1]
  amide hydrogen exchange rates in L5 in the complex (in words): reduced
[2]; 22.5 °C
  raw CD: -23.3707
  rel CD: 0.97
[2]; 23 °C
  raw CD: -23.5919
  rel CD: 0.9806
[2]; 23.5 °C
  raw CD: -24.399
  rel CD: 1.019
[2]; 24 °C
  raw CD: -24.3596
  rel CD: 1.017
[2]; 25 °C
  raw CD: -24.3798
  rel CD: 1.018
[2]; 26 °C
  raw CD: -24.239
  rel CD: 1.011
[2]; 27 °C
  raw CD: -24.36
  rel CD: 1.017
[2]; 28 °C
  raw CD: -24.2279
  rel CD: 1.011
[2]; 28.5 °C
  raw CD: -24.3095
  rel CD: 1.015
[2]; 29 °C
  raw CD: -23.5401
  rel CD: 0.9781
[2]; 30 °C
  raw CD: -23.385
  rel CD: 0.9707
[2]; 31 °C
  raw CD: -24.0555
  rel CD: 1.003
[2]; 32 °C
  raw CD: -24.3068
  rel CD: 1.015
[2]; 33 °C
  raw CD: -24.4089
  rel CD: 1.019
[2]; 34 °C
  raw CD: -23.805
  rel CD: 0.9907
[2]; 35 °C
  raw CD: -24.5097
  rel CD: 1.024
[2]; 36 °C
  raw CD: -24.0481
  rel CD: 1.002
[2]; 37 °C
  raw CD: -23.8199
  rel CD: 0.9914
[2]; 38 °C
  raw CD: -23.8252
  rel CD: 0.9917
[2]; 39 °C
  raw CD: -23.7051
  rel CD: 0.986
[2]; 68 °C
  raw CD: -6.585
  rel CD: 0.1707
[2]; 68.5 °C
  raw CD: -6.193
  rel CD: 0.1521
[2]; 69 °C
  raw CD: -6.288
  rel CD: 0.1566
[2]; 70 °C
  raw CD: -5.958
  rel CD: 0.1409
[2]; 70.5 °C
  raw CD: -5.84
  rel CD: 0.1352
[2]; 71 °C
  raw CD: -5.586
  rel CD: 0.1232
[2]; 71.5 °C
  raw CD: -5.682
  rel CD: 0.1277
[2]; 72 °C
  raw CD: -5.192
  rel CD: 0.1044
[2]; 73 °C
  raw CD: -5.167
  rel CD: 0.1032
[2]; 74 °C
  raw CD: -4.493
  rel CD: 0.07111
[2]; 74.5 °C
  raw CD: -4.638
  rel CD: 0.078
[2]; 75 °C
  raw CD: -4.942
  rel CD: 0.09249
[2]; 75.5 °C
  raw CD: -4.618
  rel CD: 0.07706
[2]; 76 °C
  raw CD: -4.509
  rel CD: 0.07187
[2]; 77 °C
  raw CD: -4.747
  rel CD: 0.0832
[2]; 77.5 °C
  raw CD: -4.466
  rel CD: 0.06981
[2]; 78 °C
  raw CD: -4.843
  rel CD: 0.08778
[2]; 78.5 °C
  raw CD: -4.206
  rel CD: 0.05742
[2]; 79 °C
  raw CD: -3.995
  rel CD: 0.0474
[2]; 79.5 °C
  raw CD: -4.497
  rel CD: 0.07129
[2]; 80 °C
  raw CD: -4.058
  rel CD: 0.05036
[2]; 81 °C
  raw CD: -4.059
  rel CD: 0.05042
[2]; 82 °C
  raw CD: -4.217
  rel CD: 0.05795
[2]; 82.5 °C
  raw CD: -4.026
  rel CD: 0.04886
[2]; 83 °C
  raw CD: -4.494
  rel CD: 0.07116
[2]; 83.5 °C
  raw CD: -4.549
  rel CD: 0.07377
[2]; 84 °C
  raw CD: -4.1838
  rel CD: 0.05637
[2]; 85 °C
  raw CD: -3.693
  rel CD: 0.03299
[2]; 86 °C
  raw CD: -3.539
  rel CD: 0.02569
[2]; 87 °C
  raw CD: -3.736
  rel CD: 0.03505
[2]; 87.5 °C
  raw CD: -3.636
  rel CD: 0.03029
[2]; 88 °C
  raw CD: -3.641
  rel CD: 0.03053
[2]; 88.5 °C
  raw CD: -3.975
  rel CD: 0.04642
[2]; 89 °C
  raw CD: -3.567
  rel CD: 0.02702
[2]; 90 °C
  raw CD: -3.821
  rel CD: 0.03908
[2]; 90.5 °C
  raw CD: -3.627
  rel CD: 0.02984
[2]; 91 °C
  raw CD: -4.011
  rel CD: 0.04814
[2]; 91.5 °C
  raw CD: -3.609
  rel CD: 0.02901
[2]; 92 °C
  raw CD: -3.4371
  rel CD: 0.02081
[2]; 93 °C
  raw CD: -3.657
  rel CD: 0.03128
[2]; 94 °C
  raw CD: -3.717
  rel CD: 0.03414
[2]; 95 °C
  raw CD: -3.854
  rel CD: 0.04065
[2]; 96 °C
  raw CD: -3.335
  rel CD: 0.01596
[2]; 97 °C
  raw CD: -3.649
  rel CD: 0.0309
[2]; 98 °C
  raw CD: -3.661
  rel CD: 0.03146
[2]; 99 °C
  raw CD: -3.437
  rel CD: 0.0208
[2]; 100 °C
  raw CD: -3.04
  rel CD: 0.001918
[2]; OEP21 with 0.5 mM metabolite, CD at 215 nm, Apo 58.5
  Melting point: 59.2 ｡C
[2]; OEP21 with 1 mM GAP
  Melting point: 60.2 ｡C

## 2′-(or-3′)-O-(N-methylanthraniloyl) adenosine 5′-triphosphate [Mant-ATP]
[3]; MgCl2 0 mM, individual determinations, read-out: KD1-KD3
  Kd: 184 nM and 169 nM and 193 nM
[3]; MgCl2 0 mM, read-out: mean KD
  Kd: 182 nM
[3]; MgCl2 0 mM, relative to mean KD at 0 mM MgCl2
  rel KD1-KD3: 1.011 and 0.9286 and 1.06
[3]; MgCl2 1 mM, individual determinations, read-out: KD1-KD3
  Kd: 442 nM and 659 nM and 1020 nM
[3]; MgCl2 1 mM, read-out: mean KD
  Kd: 706 nM
[3]; MgCl2 10 mM, individual determinations, read-out: KD1-KD3
  Kd: 1170 nM and 2680 nM and 2400 nM
[3]; MgCl2 10 mM, read-out: mean KD
  Kd: 2080 nM
[3]; MgCl2 50 mM, individual determinations, read-out: KD1-KD3
  Kd: 6430 nM and 8880 nM and 8630 nM
[3]; MgCl2 50 mM, read-out: mean KD
  Kd: 7980 nM
[3]; MgCl2 50 mM, relative to mean KD at 0 mM MgCl2
  rel KD1-KD3: 35.3077 and 48.8077 and 47.4286
[3]; NaCl 0 M, individual determinations, nM printed only in the MgCl2 head (r11) of this sheet, read-out: KD1-KD3
  Kd: 184 nM and 169 nM and 193 nM
[3]; NaCl 0 M, read-out: mean KD
  Kd: 182 nM
[3]; NaCl 0 M, relative to mean KD at 0 M NaCl
  rel KD1-KD3: 1.011 and 0.9286 and 1.06
[3]; NaCl 0.5 M, individual determinations, nM, read-out: KD1-KD3
  Kd: 241 nM and 192 nM and 264 nM
[3]; NaCl 0.5 M, read-out: mean KD
  Kd: 232 nM
[3]; NaCl 0.5 M, relative to mean KD at 0 M NaCl
  rel KD1-KD3: 1.324 and 1.055 and 1.451
[3]; NaCl 1 M, individual determinations, nM, read-out: KD1-KD3
  Kd: 2600 nM and 2460 nM and 3130 nM
[3]; NaCl 1 M, read-out: mean KD
  Kd: 2730 nM
[3]; NaCl 1 M, relative to mean KD at 0 M NaCl
  rel KD1-KD3: 14.2912 and 13.5385 and 17.1923
[3]; NaCl 2 M, individual determinations, nM, read-out: KD1-KD3
  Kd: 18.4 µM and 21.4 µM (2×)
[3]; NaCl 2 M, read-out: mean KD
  Kd: 20400 nM
[3]; NaCl 2 M, relative to mean KD at 0 M NaCl
  rel KD1-KD3: 101.319 and 117.56 and 117.418
[3]; OEP21 wt, individual determinations, unit inferred, read-out: KD1-KD3
  Kd: 184 nM and 169 nM and 193 nM
[3]; OEP21 wt, relative to mean KD of wt
  rel KD1-KD3: 1.011 and 0.9286 and 1.06
[3]; OEP21 wt, unit inferred, read-out: mean KD
  Kd: 182 nM
